Test [1] has as its system Escherichia coli. As to the kind of experiment: microbe, parasite or virus in culture.
Test [2] has as its system Escherichia coli. The test is described as follows: microbe, parasite or virus in culture. This is another data set of the same source.
Test [3] has as its target T1, Microphthalmia-associated transcription factor (Homo sapiens, UniProt O75030).
T1 sequence (O75030 whole entry): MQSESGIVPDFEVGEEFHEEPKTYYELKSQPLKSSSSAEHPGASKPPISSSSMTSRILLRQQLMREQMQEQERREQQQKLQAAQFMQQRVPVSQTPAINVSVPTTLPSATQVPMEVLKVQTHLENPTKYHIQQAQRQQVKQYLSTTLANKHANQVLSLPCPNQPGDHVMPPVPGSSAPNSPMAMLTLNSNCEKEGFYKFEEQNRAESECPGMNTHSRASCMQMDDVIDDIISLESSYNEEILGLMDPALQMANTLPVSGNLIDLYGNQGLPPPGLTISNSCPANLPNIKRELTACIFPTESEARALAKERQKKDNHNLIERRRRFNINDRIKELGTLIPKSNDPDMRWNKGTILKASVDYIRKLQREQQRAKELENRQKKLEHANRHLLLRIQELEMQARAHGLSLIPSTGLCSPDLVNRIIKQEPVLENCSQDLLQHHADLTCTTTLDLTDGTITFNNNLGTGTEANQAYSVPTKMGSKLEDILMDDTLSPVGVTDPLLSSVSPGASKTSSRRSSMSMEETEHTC
The test is described as follows: TRPM1 promoter luciferase signal decrease, dose response, MITF inhibitor project, cell-based, SK-MEL-5, cherry-picked, set 3 (AID 493073).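 Also: SK-MEL-5 melanoma cells with luciferase driven by the MITF target TRPM1 promoter.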 The format is functional.

The target of test [4] is Paired box protein Pax-8 (Homo sapiens, UniProt Q06710). As to the kind of experiment: inhibitors of PAX8-driven TPO luciferase reporter, dose response, RMG-I cells, cherry-pick (AID 687027).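 Also: luciferase reporter driven by Pax8 target thyroperoxidase promoter measured by SteadyGlo luminescence.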 The format is functional, cell-based.
Paired box protein Pax-8, sequence (Q06710 whole entry): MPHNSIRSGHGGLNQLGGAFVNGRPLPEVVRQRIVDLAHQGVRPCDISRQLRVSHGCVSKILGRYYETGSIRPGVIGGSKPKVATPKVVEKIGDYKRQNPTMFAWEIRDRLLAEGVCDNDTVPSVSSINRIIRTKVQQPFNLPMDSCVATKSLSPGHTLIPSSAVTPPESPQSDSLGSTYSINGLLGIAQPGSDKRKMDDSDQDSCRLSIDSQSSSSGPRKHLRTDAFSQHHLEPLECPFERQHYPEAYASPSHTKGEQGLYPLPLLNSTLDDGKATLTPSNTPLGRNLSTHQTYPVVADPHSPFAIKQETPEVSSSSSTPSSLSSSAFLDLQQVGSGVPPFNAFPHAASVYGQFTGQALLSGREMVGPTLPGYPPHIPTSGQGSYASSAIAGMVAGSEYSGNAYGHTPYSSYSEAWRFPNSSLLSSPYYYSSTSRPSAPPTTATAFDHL
In test [5] the target is T2, Caspase-6 (Homo sapiens, UniProt P55212).
T2 sequence (P55212 whole entry): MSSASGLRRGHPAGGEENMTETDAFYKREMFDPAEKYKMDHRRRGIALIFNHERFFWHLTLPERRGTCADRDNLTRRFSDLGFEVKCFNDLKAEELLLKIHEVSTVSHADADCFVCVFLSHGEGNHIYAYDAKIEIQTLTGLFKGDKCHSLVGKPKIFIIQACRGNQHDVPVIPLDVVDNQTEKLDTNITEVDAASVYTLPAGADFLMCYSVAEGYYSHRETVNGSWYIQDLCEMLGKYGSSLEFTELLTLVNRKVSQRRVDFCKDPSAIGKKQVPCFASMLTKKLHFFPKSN
As to the kind of experiment: human caspase-6 inhibitors, dose response, biochemical, VEID-R110 fluorescence, cherry-pick (AID 720632).

The target of test [6] is T3, Luciferin 4-monooxygenase (Photuris pensylvanica, UniProt Q27757).
T3 sequence (Q27757 whole entry): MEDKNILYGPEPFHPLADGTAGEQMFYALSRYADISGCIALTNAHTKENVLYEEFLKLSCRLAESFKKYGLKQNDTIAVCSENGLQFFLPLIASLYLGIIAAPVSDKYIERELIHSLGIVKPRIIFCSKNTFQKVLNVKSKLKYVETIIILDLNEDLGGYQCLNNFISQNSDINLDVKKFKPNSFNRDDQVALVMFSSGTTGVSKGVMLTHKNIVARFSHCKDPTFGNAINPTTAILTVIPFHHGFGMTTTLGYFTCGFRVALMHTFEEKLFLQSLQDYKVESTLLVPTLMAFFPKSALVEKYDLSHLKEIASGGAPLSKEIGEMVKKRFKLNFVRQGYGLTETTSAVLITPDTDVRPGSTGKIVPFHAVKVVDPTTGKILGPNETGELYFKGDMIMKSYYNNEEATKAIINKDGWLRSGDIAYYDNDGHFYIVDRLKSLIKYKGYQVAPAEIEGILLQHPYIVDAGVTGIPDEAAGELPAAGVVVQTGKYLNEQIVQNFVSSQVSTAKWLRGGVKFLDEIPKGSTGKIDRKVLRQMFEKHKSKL
As to the kind of experiment: firefly luciferase enzyme inhibitors, dose response, counter-screen for HSF-1 reporter inhibitor project, biochemical, Cell Titer Glo, luminescence, cherry-picks (AID 588847). On the technique in general: The purpose of a counterscreen is to sort out artefacts and off-target activity.

Test [7] deals with Induced myeloid leukemia cell differentiation protein Mcl-1 (Homo sapiens, UniProt Q07820). It is filed as functional.
Induced myeloid leukemia cell differentiation protein Mcl-1, sequence (Q07820 whole entry): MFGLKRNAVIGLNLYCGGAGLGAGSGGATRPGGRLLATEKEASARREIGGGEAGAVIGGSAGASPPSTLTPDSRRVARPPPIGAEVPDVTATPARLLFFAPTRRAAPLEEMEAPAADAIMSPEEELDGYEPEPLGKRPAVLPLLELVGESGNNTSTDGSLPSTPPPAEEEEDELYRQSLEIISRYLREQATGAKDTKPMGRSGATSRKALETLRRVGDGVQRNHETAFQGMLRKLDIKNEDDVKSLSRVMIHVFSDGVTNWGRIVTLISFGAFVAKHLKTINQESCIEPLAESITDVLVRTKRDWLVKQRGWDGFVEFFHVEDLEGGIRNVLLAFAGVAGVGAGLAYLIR
Test [8] is described as follows: Luminescence Cell-Based Dose Retest to Confirm Inhibitors of Cancer Stem Cells. [Related pubchem assays (depositor defined):AID2717, AID2721]. The format is functional. To be noted: Homo sapiens.
Test [9] deals with T4, Heat shock factor protein 1 (Mus musculus, UniProt P38532).
T4 sequence (P38532 whole entry): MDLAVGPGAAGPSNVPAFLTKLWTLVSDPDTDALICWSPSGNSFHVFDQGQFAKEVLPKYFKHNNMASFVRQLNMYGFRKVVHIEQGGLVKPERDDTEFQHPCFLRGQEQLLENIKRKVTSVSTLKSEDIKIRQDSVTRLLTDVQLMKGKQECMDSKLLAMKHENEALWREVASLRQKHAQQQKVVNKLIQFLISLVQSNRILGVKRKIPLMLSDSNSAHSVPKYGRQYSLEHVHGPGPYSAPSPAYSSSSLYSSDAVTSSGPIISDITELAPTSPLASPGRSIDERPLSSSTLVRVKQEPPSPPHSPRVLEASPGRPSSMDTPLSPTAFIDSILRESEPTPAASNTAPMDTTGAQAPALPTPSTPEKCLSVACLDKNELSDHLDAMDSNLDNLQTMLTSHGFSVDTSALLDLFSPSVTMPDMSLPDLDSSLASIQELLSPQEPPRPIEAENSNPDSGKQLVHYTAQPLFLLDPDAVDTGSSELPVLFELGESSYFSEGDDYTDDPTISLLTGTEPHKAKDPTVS
As to the kind of experiment: HSF1 potentiators in luciferase reporter cells, confirmation, cell-based, NIH3T3, luminescence, dose retest (AID 435004).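 Also: stress induced by proteasome inhibitor MG132 added 30 min after compound; luciferase reporter driven by HSF1 response element in NIH3T3 cells; actives raise luminescence as potentiators of the MG132 stress response.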 It is filed as functional. A general note: In a reporter assay the amount or activity of a reporter protein is the signal.

Test [10] deals with Vero. The test is described as follows: cells. It is filed as functional, cell-based. Particulars: Chlorocebus sabaeus.
Test [11] has as its system INS1. The test is described as follows: beta cell apoptosis inhibitors, cytokine rescue, dose response, luminescence, retest (AID 449756).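 Also: cell death triggered by IL-1 beta plus TNF-alpha plus IFN-gamma mixture; protective hits raise ATP signal compared with cytokine alone wells.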 The format is functional, cell-based. To be noted: Rattus norvegicus.
Test [12] relates to Vero. As to the kind of experiment: cells. It is filed as functional. Particulars: Chlorocebus sabaeus.
For test [13], the system named is HEK293. The test is described as follows: cells. Particulars: Homo sapiens.
Test [14] has as its system HEK293. The test is described as follows: cells. To be noted: Homo sapiens. The source holds these as a separate data set.

SMILES strings stand for the structures. Calls of active or inactive are those of the source.

The AC50 is the concentration giving half of the maximal activity seen. As for `Cc1ccc(CNC(=O)COC(=O)c2cccnc2Cl)cc1`, the AC50 was 29.3 µM (active) in test [1] and 73.1 µM (active) in test [2].

`CC(=O)N1CCc2c(sc(NC(=O)c3ccc([N+](=O)[O-])o3)c2C#N)C1`: the concentration at half-maximal activity (AC50) in test [3] is 2.22 µM (active); in test [4] it was 2.71 µM (active); in test [5], 26.6 µM (active).

On to `Cn1c(=O)oc2cc(S(=O)(=O)NCCN3CCCCCC3)ccc21`, for which the AC50 in test [1] was 24.2 µM (active).

Turning to `c1coc(CN2CNc3nc4ccccc4n3C2)c1`, the AC50 in [1] was 79.4 µM (active); in test [2], 101 µM (active).

In the case of `CCC(=O)O[C@]1(C(=O)CCl)[C@@H](C)C[C@H]2[C@@H]3CCC4=CC(=O)C=C[C@]4(C)[C@@]3(F)[C@@H](O)C[C@@]21C` [CLOBETASOL PROPIONATE], the AC50 in test [6] was > 52 µM (inactive).

Turning to `CC(C)(C)OC(=O)NCCCCCNC(=O)c1[nH]cnc1C(=O)NC1CCN(C(=O)OC(C)(C)C)CC1`, the AC50 in test [2] is 235 µM (active).

One may read the IC50 as the concentration at which inhibition is half-maximal. As usually defined, the EC50 is the concentration giving half of the maximal effect. For orientation: CC50 means the concentration that lowers cell viability or growth by half. Turning to `Sc1nnc(-c2cc(-c3ccccc3)[nH]n2)n1/N=C/C(Br)=C/c1ccccc1`, the IC50 in [7] was 4.97 µM (active); in [10], 6.87 µM (active). Besides, the figures for the AC50 in test [8] and in test [11] were 614 nM (active) and 9.04 µM (active), respectively. The EC50 was 2.65 µM (inconclusive) in test [9], > 59.6 µM (inactive) in test [13] and > 59.6 µM (inactive) in test [14]. Moreover, the half-maximal cytotoxic concentration (CC50) in [12] is > 25 µM (active).

On to `CCOC(=O)CSc1nc(N)c(C#N)c(-c2ccc(OCC)cc2)c1C#N`, for which the EC50 in test [13] and in test [14] was > 59.6 µM (inactive) throughout.

Source of the values: ChEMBL document CHEMBL1201862, “PubChem BioAssay data set” (2004).
